Measurements published in US7618967B2, “Indane compounds” (H. Lundbeck A/S, priority 2006, dated 2009).

Each compound was assayed against NAT Noradrenergic Transporter (Rattus norvegicus, UniProt Q9WTR4) (assay: Measurements of [3H]noradrenaline uptake into rat cortical synaptosomes).
Type: biochemical
Experimental: Transporter Inhibition Assays
Measurements of [^3H]Noradrenaline Uptake into Rat Cortical Synaptosomes
The homogenate is centrifuged at 1000×g for 10 min at 4° C. The pellet is discarded and the supernatant is centrifuged at 40.000×g for 20 min. […] Pellet is suspended in 140 volumes of assaybuffer. Tissue is mixed with test compounds and after 10 min pre-incubation, 10 nM [^3H]-noradrenaline is added to a final volume of 0.2 ml and the mixture is incubated for 15 min at 37° C. After 15 min incubation, samples are filtered directly on Unifilter GF/C glass fiber filters (soaked for 30 min in 0.1% polyethylenimine) under vacuum and immediately washed with 1×0.2 mL assay buffer.
Non-specific uptake is determined using talsupram (10 μM final concentration). Duloxetine is included as reference in all experiments as dose-response curve.

NAT Noradrenergic Transporter, sequence (Q9WTR4 6-550 limits assumed): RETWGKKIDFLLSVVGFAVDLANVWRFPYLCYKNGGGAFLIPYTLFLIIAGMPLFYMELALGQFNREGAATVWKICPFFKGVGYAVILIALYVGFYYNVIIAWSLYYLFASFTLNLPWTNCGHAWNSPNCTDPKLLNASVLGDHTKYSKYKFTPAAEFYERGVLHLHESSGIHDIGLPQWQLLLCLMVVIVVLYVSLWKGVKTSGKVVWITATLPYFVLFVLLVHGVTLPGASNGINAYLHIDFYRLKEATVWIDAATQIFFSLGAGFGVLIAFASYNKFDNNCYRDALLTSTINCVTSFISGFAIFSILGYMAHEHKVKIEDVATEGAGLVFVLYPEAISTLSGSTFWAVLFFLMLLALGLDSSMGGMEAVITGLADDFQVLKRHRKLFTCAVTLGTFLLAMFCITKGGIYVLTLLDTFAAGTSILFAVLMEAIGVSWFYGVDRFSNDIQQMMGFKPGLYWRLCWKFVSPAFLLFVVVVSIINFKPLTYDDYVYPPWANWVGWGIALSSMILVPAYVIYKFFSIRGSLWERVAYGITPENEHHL

IC50, 0.1 to 200 nM:
CN[C@@H]1C[C@@H](c2c[nH]c3ccc(Cl)cc23)c2ccccc21 [Formula VIII], CN[C@@H]1C[C@@H](c2c[nH]c3ccccc23)c2ccccc21 [Formula IX], CN[C@@H]1C[C@@H](c2c[nH]c3cc(OC)ccc23)c2ccccc21 [Formula X]
